According to ChEMBL document CHEMBL1201862, “PubChem BioAssay data set” (2004):
Active and inactive are the calls of the source.

Columns and labels:
[1] = Luminescence Cell-Based Dose Confirmation HTS to Identify Activators of 5'UTR Stem-Loop Driven Alpha-Synuclein mRNA Translation in H4 Neuroglioblastoma Cells. [Related pubchem assays: 1829 (Project Summary), 1814 (Primary HTS)]; assay type: functional
[2] = Luminescence Cell-Based Dose Response HTS to Identify Activators of Luciferase Translation or Activity in H4 […] Cells. [Related pubchem assays: 1829 (Project Summary), 1814 (Primary HTS)]; assay type: functional
[3] = system: H4; assay: Luminescence Cell-Based Dose Response HTS to Identify Activators of 5'UTR Stem-Loop Driven Prion Protein mRNA Translation in H4 Neuroglioblastoma Cells. [Related pubchem assays: 1829 (Project Summary), 1814 (Primary HTS)]; assay type: functional; details: Homo sapiens
[4] = system: HeLa; assay: HeLa cell cytotoxicity, dose response, cytotoxicity control for MITF activator project, CellTiter-Glo luminescence, cherry-pick samples (AID 540259); assay type: functional, cell-based; details: Homo sapiens
[5] = system: HEK293; assay: cells; assay type: functional, cell-based; details: Homo sapiens
[6] = molecular target: T1, Nuclear receptor subfamily 0 group B member 1 (Homo sapiens, UniProt P51843); assay: Luminescence-based cell-based high throughput dose response assay for inhibitors of the orphan nuclear receptor subfamily 0, group B, member 1 (DAX1; NR0B1). [Related pubchem assays (depositor defined):AID504766, AID504790]; assay type: functional
T1 sequence (P51843 whole entry): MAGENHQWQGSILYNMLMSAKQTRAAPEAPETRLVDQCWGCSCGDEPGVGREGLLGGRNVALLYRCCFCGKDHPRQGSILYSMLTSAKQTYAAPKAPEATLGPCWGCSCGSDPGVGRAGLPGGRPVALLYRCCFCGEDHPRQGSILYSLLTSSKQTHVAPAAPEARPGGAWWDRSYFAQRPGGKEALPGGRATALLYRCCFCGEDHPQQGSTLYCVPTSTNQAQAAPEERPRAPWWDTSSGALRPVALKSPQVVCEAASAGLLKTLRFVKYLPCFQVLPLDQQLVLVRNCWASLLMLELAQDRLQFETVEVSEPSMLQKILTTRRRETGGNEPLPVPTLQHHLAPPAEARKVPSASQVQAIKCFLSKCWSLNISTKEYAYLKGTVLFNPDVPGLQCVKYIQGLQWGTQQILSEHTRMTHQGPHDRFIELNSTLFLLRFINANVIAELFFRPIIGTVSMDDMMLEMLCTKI

[7] = molecular target: Trypsin (Sus scrofa, UniProt P00761); assay: porcine trypsin inhibitors, dose response, selectivity assay for Rce1 protease inhibitor project, biochemical, quenched peptide fluorescence, cherry-pick (AID 488789)
Chain of Trypsin (P00761 whole entry): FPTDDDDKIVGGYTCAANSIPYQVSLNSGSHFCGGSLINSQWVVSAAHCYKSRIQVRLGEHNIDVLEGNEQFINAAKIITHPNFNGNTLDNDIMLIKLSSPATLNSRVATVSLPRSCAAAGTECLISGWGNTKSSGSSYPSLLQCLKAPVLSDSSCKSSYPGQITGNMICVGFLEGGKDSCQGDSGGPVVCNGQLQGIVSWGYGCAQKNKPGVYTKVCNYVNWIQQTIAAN

[8] = molecular target: T2, CAAX prenyl protease 2 (Saccharomyces cerevisiae S288c, UniProt Q03530); assay type: biochemical
T2 sequence (Q03530 whole entry): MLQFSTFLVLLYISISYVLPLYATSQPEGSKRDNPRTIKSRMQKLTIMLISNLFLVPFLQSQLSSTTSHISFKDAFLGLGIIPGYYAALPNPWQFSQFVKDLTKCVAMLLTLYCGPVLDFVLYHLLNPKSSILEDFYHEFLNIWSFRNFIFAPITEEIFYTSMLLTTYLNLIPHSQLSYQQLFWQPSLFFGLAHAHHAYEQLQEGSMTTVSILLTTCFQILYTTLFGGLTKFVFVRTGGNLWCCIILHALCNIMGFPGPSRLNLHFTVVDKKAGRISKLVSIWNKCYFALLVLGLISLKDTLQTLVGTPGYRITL

[9] = molecular target: CAAX prenyl protease 2 (Homo sapiens, UniProt Q9Y256); assay: human Rce1 protease inhibitors, dose response, biochemical, yeast membranes, quenched-peptide fluorescence, cherry-pick (AID 588849)
Chain of CAAX prenyl protease 2 (Homo sapiens, UniProt Q9Y256) (Q9Y256 whole entry): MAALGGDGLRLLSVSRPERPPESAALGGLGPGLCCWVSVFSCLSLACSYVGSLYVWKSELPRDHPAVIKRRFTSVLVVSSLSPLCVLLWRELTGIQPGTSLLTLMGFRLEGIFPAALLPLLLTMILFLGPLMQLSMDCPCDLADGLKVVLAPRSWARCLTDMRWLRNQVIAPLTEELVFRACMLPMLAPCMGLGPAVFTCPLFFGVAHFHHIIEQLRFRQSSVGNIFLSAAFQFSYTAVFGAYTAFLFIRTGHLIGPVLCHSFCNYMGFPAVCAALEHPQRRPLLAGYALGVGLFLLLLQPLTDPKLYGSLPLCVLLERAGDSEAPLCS

[10] = NIH-3T3 fibroblast cytotoxicity, dose response, cytotoxicity control, cell-based, fluorescence, Alamar Blue, secondary assay (AID 2327); assay type: functional;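 note: NIH-3T3 mouse fibroblasts cultured with fluconazole at 8 µg/mL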
[11] = C. albicans growth with fluconazole, confirmation, fluorescence, retest (AID 2467); assay type: functional, cell-based
[12] = molecular target: Serine/threonine-protein phosphatase (Candida dubliniensis (strain CD36 / CBS 7987 / NCPF 3949 / NRRLY-17841) (Yeast), UniProt B9W6M3); assay: calcineurin pathway inhibitors in yeast reporter, dose response, S. cerevisiae, CDRE-lacZ, luminescence, secondary (AID 2388); assay type: functional, cell-based;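 note: yeast reporter cells carrying a calcineurin-responsive lacZ construct stimulated with calcium chloride; luminescent beta-galactosidase reporter signal in whole cells rather than isolated phosphatase activity; potency for inhibition where a drop in reporter signal means calcineurin blockade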
Chain of Serine/threonine-protein phosphatase (B9W6M3 whole entry): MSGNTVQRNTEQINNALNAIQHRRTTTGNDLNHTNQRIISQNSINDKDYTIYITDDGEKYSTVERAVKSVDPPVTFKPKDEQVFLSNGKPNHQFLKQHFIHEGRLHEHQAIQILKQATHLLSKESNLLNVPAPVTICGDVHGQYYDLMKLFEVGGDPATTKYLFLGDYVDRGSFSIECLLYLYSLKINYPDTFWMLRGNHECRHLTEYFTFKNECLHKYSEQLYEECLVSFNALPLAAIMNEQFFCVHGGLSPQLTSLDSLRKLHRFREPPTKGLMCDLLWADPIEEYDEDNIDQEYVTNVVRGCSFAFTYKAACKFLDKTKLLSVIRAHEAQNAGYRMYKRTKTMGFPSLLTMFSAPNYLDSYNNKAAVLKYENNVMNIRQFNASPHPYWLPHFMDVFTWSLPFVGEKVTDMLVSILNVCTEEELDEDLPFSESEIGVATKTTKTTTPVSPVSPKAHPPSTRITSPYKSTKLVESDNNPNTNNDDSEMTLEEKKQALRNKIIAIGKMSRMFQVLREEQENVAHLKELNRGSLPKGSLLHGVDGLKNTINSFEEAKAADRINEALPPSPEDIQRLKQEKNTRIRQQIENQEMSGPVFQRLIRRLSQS

[13] = molecular target: ATP-dependent molecular chaperone HSP82 (Candida albicans (strain WO-1) (Yeast), UniProt C4YTQ8); assay: loss of DOC-induced GRE-beta-galactosidase reporter signal, dose response, Hsp90 inhibitor project, S. cerevisiae, luminescence (AID 2400); assay type: functional, cell-based;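 note: beta-galactosidase luminescence from glucocorticoid response element reporter as proxy for Hsp90 function; inhibitor potency where signal loss means Hsp90 inhibition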
Chain of ATP-dependent molecular chaperone HSP82 (C4YTQ8 whole entry): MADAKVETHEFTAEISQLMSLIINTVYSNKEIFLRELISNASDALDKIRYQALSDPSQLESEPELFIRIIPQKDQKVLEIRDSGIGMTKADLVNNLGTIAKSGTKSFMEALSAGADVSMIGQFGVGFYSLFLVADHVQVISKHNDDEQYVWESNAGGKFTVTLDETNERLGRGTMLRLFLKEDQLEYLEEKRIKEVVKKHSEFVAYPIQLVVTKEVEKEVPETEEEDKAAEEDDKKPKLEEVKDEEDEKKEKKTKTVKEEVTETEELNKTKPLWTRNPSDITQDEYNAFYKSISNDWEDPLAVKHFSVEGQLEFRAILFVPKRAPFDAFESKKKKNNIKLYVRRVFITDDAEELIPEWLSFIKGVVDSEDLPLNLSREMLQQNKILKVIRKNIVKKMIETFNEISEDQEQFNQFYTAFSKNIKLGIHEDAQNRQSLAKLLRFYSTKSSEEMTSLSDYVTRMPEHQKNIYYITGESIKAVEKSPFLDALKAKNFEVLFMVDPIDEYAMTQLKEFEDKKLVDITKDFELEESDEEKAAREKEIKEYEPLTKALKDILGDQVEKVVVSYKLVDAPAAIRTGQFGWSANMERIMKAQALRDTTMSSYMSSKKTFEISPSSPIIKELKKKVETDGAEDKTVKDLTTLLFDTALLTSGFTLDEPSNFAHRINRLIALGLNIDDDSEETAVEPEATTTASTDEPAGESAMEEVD

[14] = molecular target: Large T antigen (Simian virus 40, UniProt P03070); assay type: functional, Betapolyomavirus macacae;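 note: Confirmatory-stage PubChem screen for compounds that inhibit SV40 T antigen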
Chain of Large T antigen (P03070 whole entry): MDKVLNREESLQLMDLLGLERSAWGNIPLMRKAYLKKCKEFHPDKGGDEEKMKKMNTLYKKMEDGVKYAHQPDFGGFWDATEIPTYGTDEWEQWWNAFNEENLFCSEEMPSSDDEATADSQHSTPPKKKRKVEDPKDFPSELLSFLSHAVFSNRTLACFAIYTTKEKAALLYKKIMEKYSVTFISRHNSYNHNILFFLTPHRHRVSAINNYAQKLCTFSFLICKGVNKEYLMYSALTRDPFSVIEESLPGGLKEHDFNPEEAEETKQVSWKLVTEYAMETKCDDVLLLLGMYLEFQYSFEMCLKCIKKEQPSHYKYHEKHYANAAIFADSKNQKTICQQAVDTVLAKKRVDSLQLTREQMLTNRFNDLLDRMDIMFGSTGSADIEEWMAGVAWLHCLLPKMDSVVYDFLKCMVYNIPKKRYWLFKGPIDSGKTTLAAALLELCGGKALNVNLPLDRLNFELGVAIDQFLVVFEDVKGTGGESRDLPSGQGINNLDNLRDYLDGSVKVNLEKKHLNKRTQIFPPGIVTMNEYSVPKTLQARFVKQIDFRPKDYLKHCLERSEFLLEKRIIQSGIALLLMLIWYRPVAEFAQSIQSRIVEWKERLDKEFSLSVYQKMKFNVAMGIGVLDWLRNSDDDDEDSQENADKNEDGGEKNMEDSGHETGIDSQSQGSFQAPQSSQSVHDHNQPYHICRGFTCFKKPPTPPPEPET

[15] = molecular target: T3, Replicative DNA helicase DnaB (Mycobacterium tuberculosis, UniProt P9WMR3); assay: DnaB intein splicing inhibitors, dose response, biochemical, cell-free fluorescence (AID 449749); assay type: functional
T3 sequence (P9WMR3 whole entry): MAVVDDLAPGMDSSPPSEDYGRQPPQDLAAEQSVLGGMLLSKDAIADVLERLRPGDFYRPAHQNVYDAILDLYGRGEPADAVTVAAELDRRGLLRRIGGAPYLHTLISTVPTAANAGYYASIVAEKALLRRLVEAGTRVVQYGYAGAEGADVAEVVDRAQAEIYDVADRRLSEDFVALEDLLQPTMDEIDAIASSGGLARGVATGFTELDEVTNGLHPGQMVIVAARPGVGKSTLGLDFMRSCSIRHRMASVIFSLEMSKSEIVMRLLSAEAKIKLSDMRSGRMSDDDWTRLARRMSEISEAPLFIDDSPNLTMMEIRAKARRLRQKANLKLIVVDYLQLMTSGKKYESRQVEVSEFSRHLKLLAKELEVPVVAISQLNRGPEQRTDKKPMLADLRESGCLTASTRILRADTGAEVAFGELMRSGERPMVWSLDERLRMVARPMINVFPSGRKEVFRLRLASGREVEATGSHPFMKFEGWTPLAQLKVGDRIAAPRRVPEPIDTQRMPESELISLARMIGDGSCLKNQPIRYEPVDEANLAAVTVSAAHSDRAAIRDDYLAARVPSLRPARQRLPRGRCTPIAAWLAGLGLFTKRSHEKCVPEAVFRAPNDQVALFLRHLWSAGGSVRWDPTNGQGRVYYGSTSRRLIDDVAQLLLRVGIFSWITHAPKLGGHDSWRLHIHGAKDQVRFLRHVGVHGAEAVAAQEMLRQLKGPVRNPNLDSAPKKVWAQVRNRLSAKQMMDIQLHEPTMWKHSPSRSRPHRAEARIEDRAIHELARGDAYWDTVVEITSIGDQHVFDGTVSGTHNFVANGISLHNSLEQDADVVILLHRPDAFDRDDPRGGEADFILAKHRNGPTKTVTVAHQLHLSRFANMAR

[16] = molecular target: T4, Protein RecA (Mycobacterium tuberculosis, UniProt P9WHJ3); assay: Fluorescence Cell-Free Homogeneous Dose Retest to Identify Inhibitors of RecA-Intein Splicing Activity. [Related pubchem assays (depositor defined):AID2097, AID2223, AID489010, AID492950]; assay type: functional
T4 sequence (P9WHJ3 whole entry): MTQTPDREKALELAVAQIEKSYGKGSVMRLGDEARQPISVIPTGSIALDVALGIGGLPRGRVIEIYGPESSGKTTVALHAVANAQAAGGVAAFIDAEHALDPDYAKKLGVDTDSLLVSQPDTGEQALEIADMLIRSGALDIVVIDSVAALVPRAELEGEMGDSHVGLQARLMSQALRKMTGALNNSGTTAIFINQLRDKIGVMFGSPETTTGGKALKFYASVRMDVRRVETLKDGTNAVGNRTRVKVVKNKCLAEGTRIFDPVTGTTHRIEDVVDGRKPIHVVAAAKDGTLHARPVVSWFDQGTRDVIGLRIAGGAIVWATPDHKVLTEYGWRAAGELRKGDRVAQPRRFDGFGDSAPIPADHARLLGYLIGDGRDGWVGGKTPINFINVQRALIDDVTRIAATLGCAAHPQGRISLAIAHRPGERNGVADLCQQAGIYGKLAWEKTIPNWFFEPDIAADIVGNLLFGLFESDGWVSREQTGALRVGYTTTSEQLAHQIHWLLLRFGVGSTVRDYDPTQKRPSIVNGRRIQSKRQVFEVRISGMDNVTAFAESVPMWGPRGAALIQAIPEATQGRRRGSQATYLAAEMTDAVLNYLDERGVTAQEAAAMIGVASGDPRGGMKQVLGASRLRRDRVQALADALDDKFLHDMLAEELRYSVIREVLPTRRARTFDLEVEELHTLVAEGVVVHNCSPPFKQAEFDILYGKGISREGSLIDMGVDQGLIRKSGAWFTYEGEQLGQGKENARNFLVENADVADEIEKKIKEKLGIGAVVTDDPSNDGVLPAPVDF

[17] = system: HEK293; assay: cells; details: Homo sapiens
[18] = system: HEK293; assay: cells; details: Homo sapiens; remark: listed apart in the source

## O=c1oc2cc(Cl)ccc2n1CSc1nc2ccccc2s1
[1]
  EC50: 24.1 µM (active)
[2]
  EC50: 24.4 µM (active)
[3]
  EC50: 50.8 µM (active)
[4]
  AC50: 216 µM (active)

## O=C(CNC(=O)c1cc(O)nc2ccccc12)Nc1ccc(F)c(F)c1
[5]
  IC50: > 67.5 µM (inactive)
[6]
  IC50: > 67.5 µM (inactive)

## Cc1oc2c(CN3CCOCC3)c(O)ccc2c(=O)c1-c1ccccc1
[7]
  AC50: 9.64 µM (active)
[8]
  AC50: 11 µM (active)
[9]
  AC50: 10.3 µM (active)

## COc1ccc(C2C3=C(O)CC(C)(C)CC3=Nc3[nH]nc(C)c32)cc1 (stereo unspecified)
[7]
  AC50: > 100 µM (inactive)
[9]
  AC50: 13.5 µM (active)

## Cc1c(OCC(=O)NCC(O)c2ccccc2)ccc2c(-c3ccccc3)cc(=O)oc12 (stereo unspecified)
[10]
  EC50: 80.8 µM (active)
[11]
  EC50: 0.699 µM (active)
[12]
  EC50: > 180 µM (inactive)
[13]
  EC50: > 160 µM (inactive)

## O=c1c2ccccc2oc2cc(-c3ccc4cc[nH]c4c3)ccc12
[4]
  AC50: 53.5 µM (active)

## O=C(CCl)Nc1ccc(N2CCCCCC2)cc1
[14]
  IC50: 18.9 µM (active)
[15]
  AC50: 14.3 µM (active)
[16]
  EC50: 7.62 µM (active)
[17]
  EC50: > 59.7 µM (inactive)
[18]
  EC50: > 59.7 µM (inactive)
